Our source for the AC50 values is US20250171438A1 (Agios Pharmaceuticals, Inc., priority 2022, published 2025).

Structures are written as SMILES.

For one assay, the target named is T1, human PAH with the R408W mutation (Homo sapiens, UniProt P00439, R408W).
T1 construct: expressed in transfected cells
T1 sequence (P00439 1-452 R408W): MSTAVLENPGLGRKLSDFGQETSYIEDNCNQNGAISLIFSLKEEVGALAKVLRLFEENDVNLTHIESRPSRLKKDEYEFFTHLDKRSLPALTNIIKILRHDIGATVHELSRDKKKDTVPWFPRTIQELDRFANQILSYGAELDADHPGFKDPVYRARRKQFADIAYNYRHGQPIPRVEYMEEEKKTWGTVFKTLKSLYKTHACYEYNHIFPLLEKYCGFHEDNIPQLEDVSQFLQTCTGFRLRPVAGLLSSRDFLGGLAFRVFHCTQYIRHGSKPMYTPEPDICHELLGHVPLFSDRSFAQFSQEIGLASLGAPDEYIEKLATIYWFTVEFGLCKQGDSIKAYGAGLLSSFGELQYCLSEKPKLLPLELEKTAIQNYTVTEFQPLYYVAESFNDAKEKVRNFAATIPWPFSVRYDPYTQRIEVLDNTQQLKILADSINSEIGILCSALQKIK
Nature of the assay: Cell Based Phenylalanine Flux Assay. The settings on record: A375 cells expressing human R408W PAH; 24 hrs compound incubation; 13C-Tyrosine by LC-MS; average where tested multiple times; read-out: AC50.
Regarding `Cc1nc(CCN(C)C)oc1C(=O)N1CCc2[nH]cnc2[C@@H]1c1nc2ccccc2s1` [Example 1660, (R)-(4-(benzo[d]thiazol-2-yl)-6,7-dihydro-1H-imidazo[4,5-c]pyridin-5(4H)-yl)(2-(2-(dimethylamino)ethyl)-4-methyloxazol-5-yl)methanone], the half-maximal activity concentration (AC50) is above 5000 nM.

As for `CC(C)n1ncc(C(=O)N2CCc3[nH]cnc3[C@@H]2c2nc3c(F)cccc3s2)c1C(F)F` [Example 2002, (R)-(5-(difluoromethyl)-1-isopropyl-1H-pyrazol-4-yl)(4-(4-fluorobenzo[d]thiazol-2-yl)-6,7-dihydro-1H-imidazo[4,5-c]pyridin-5(4H)-yl)methanone], the AC50 fell in the range of 1000 to 5000 nM. As for `Cn1cc(-c2nnc(C(=O)N3CCc4[nH]cnc4[C@H]3c3nc4c(F)cccc4s3)o2)cn1` [Example 1728, (S)-(4-(4-fluorobenzo[d]thiazol-2-yl)-6,7-dihydro-1H-imidazo[4,5-c]pyridin-5(4H)-yl)(5-(1-methyl-1H-pyrazol-4-yl)-1,3,4-oxadiazol-2-yl)methanone], the AC50 was below 500 nM.

As for `O=C(c1ncc(Cl)s1)N1CCc2[nH]cnc2[C@H]1c1nc2cc(F)ccc2s1` [Example 1261], the AC50 fell in the range of 1000 to 5000 nM. Still for that read-out and setting: with `O=C(c1cnn(CC(F)(F)F)c1C(F)F)N1CCc2[nH]cnc2[C@H]1c1nc2ccccc2s1` [Example 1973] the figure was below 500 nM. Turning to `CN(C)CCc1nc(C(F)(F)F)c(C(=O)N2CCc3[nH]cnc3[C@@H]2c2nc3c(F)cccc3s2)o1` [Example 1676, (R)-(2-(2-(dimethylamino)ethyl)-4-(trifluoromethyl)oxazol-5-yl)(4-(4-fluorobenzo[d]thiazol-2-yl)-6,7-dihydro-1H-imidazo[4,5-c]pyridin-5(4H)-yl)methanone], the half-maximal activity concentration (AC50) is below 500 nM. Regarding `CC(C)(F)c1ncc(C(=O)N2CCc3[nH]cnc3[C@@H]2c2nc3ccccc3s2)s1` [Example 1464, (R)-(4-(benzo[d]thiazol-2-yl)-6,7-dihydro-1H-imidazo[4,5-c]pyridin-5(4H)-yl)(2-(2-fluoropropan-2-yl)thiazol-5-yl)methanone], the concentration at half-maximal activity (AC50) is 1000 to 5000 nM. The same measure, in the same setting: with `O=C(c1nncn1C1CC1)N1CCc2[nH]cnc2[C@@H]1c1nc2c(F)cccc2s1` [Example 2083, (R)-(4-cyclopropyl-4H-1,2,4-triazol-3-yl)(4-(4-fluorobenzo[d]thiazol-2-yl)-6,7-dihydro-1H-imidazo[4,5-c]pyridin-5(4H)-yl)methanone] the figure was 1000 to 5000 nM.

Turning to `C[C@H]1CN(C(=O)c2nnc(-c3ccc(F)cn3)o2)[C@@H](c2nc3ccccc3s2)c2nc[nH]c21` [Example 1755, ((4R,7S)-4-(benzo[d]thiazol-2-yl)-7-methyl-6,7-dihydro-1H-imidazo[4,5-c]pyridin-5(4H)-yl)(5-(5-fluoropyridin-2-yl)-1,3,4-oxadiazol-2-yl)methanone], the AC50 was above 5000 nM. For the compound `O=C(c1nc2c(F)cccc2s1)N1CCc2[nH]cnc2[C@H]1c1nc2ccccc2s1` [Example 1092], the half-maximal activity concentration (AC50) fell in the range of 500 to 1000 nM. Take `Cc1csc(CCC(=O)N2CCc3[nH]cnc3[C@H]2c2nc3ccccc3s2)n1` [Example 1079]: the AC50 was 500 to 1000 nM. On the same count and under the same terms, with `Clc1cnc(CN2CCc3[nH]cnc3[C@H]2c2nc3ccccc3[nH]2)s1` [Example 980, (S)-2-((4-(1H-benzo[d]imidazol-2-yl)-6,7-dihydro-1H-imidazo[4,5-c]pyridin-5(4H)-yl)methyl)-5-chlorothiazole] the figure was 500 to 1000 nM; with `O=C(c1nccs1)N1CCc2[nH]cnc2[C@@H]1c1nc2cccc(Br)c2s1` [Example 1199, (R)-(4-(7-bromobenzo[d]thiazol-2-yl)-6,7-dihydro-1H-imidazo[4,5-c]pyridin-5(4H)-yl)(thiazol-2-yl)methanone], 1000 to 5000 nM; with `O=C(c1nnc(-c2ccccn2)o1)N1CC2(CC2)c2[nH]cnc2[C@@H]1c1nc2ccccc2s1` [Example 1683, (R)-(4′-(benzo[d]thiazol-2-yl)spiro[cyclopropane-1,7′-imidazo[4,5-c]pyridin]-5′(1′H,4′H,6′H)-yl)(5-(pyridin-2-yl)-1,3,4-oxadiazol-2-yl)methanone], 1000 to 5000 nM.

With `O=C(c1nnc(-c2cc[nH]n2)o1)N1CCc2[nH]cnc2[C@@H]1c1nc2ccccc2s1` [Example 1900, (R)-(5-(1H-pyrazol-3-yl)-1,3,4-oxadiazol-2-yl)(4-(benzo[d]thiazol-2-yl)-6,7-dihydro-1H-imidazo[4,5-c]pyridin-5(4H)-yl)methanone], the AC50 lay within 1000 to 5000 nM. The same measure, in the same setting: with `O=C(c1cnn2ccc(Br)cc12)N1CCc2[nH]cnc2[C@H]1c1nc2c(F)cccc2s1` [Example 1171] the figure was below 500 nM; with `O=C(c1nnc(-c2ccn(C(F)F)n2)o1)N1CCc2[nH]cnc2[C@H]1c1nc2ccccc2s1` [Example 1873], below 500 nM; with `Cn1ncc(C(=O)N2CCc3[nH]cnc3[C@@H]2c2nc3ccccc3s2)c1C(F)F` [Example 1820, (R)-(4-(benzo[d]thiazol-2-yl)-6,7-dihydro-1H-imidazo[4,5-c]pyridin-5(4H)-yl)(5-(difluoromethyl)-1-methyl-1H-pyrazol-4-yl)methanone], above 5000 nM.

Turning to `O=C(c1oc(-c2ccc(F)cn2)nc1C(F)F)N1CCc2[nH]cnc2[C@H]1c1nc2ccccc2s1` [Example 1746], the concentration at half-maximal activity (AC50) was below 500 nM. On the same count and under the same terms, with `O=C(c1cn(CC2CC2)nc1Cl)N1CCc2[nH]cnc2[C@@H]1c1nc2c(F)cccc2s1` [Example 1984, (R)-(3-chloro-1-(cyclopropylmethyl)-1H-pyrazol-4-yl)(4-(4-fluorobenzo[d]thiazol-2-yl)-6,7-dihydro-1H-imidazo[4,5-c]pyridin-5(4H)-yl)methanone] the figure was 1000 to 5000 nM; with `O=C(c1nccs1)N1CCc2[nH]cnc2[C@@H]1c1nc2ccccc2[nH]1` [Example 902, (R)-(4-(1H-benzo[d]imidazol-2-yl)-6,7-dihydro-1H-imidazo[4,5-c]pyridin-5(4H)-yl)(thiazol-2-yl)methanone], above 5000 nM. Still for that read-out and setting: with `O=C(c1cnc(-c2cc(C(F)(F)F)ccn2)s1)N1CCc2[nH]cnc2[C@H]1c1nc2ccccc2s1` [Example 1357] the figure was below 500 nM; with `O=C(c1nnc(-c2ccc(F)c(F)c2)o1)N1CCc2[nH]cnc2[C@@H]1c1nc2c(F)cccc2s1` [Example 1877, (R)-(5-(3,4-difluorophenyl)-1,3,4-oxadiazol-2-yl)(4-(4-fluorobenzo[d]thiazol-2-yl)-6,7-dihydro-1H-imidazo[4,5-c]pyridin-5(4H)-yl)methanone], 1000 to 5000 nM. On the same count and under the same terms, with `O=C(c1oc(-c2ccccn2)nc1C(F)(F)F)N1CC2(CC2)c2[nH]cnc2[C@H]1c1nc2ccccc2s1` [Example 1681, (S)-(4′-(benzo[d]thiazol-2-yl)spiro[cyclopropane-1,7′-imidazo[4,5-c]pyridin]-5′(1′H,4′H,6′H)-yl)(2-(pyridin-2-yl)-4-(trifluoromethyl)oxazol-5-yl)methanone] the figure was 500 to 1000 nM; with `CC(F)(F)c1ncoc1C(=O)N1CCc2[nH]cnc2[C@@H]1c1nc2c(F)cccc2s1` [Example 2008, (R)-(4-(1,1-difluoroethyl)oxazol-5-yl)(4-(4-fluorobenzo[d]thiazol-2-yl)-6,7-dihydro-1H-imidazo[4,5-c]pyridin-5(4H)-yl)methanone], 1000 to 5000 nM; with `Cc1nc(C2(O)CC2)oc1C(=O)N1CCc2[nH]cnc2[C@@H]1c1nc2c(F)cccc2s1` [Example 1950, (R)-(4-(4-fluorobenzo[d]thiazol-2-yl)-6,7-dihydro-1H-imidazo[4,5-c]pyridin-5(4H)-yl)(2-(1-hydroxycyclopropyl)-4-methyloxazol-5-yl)methanone], above 5000 nM. `O=C(c1nncs1)N1CCc2[nH]cnc2[C@H]1c1nc2cc(F)ccc2s1` [Example 1299, (S)-(4-(5-fluorobenzo[d]thiazol-2-yl)-6,7-dihydro-1H-imidazo[4,5-c]pyridin-5(4H)-yl)(1,3,4-thiadiazol-2-yl)methanone]: the concentration at half-maximal activity (AC50) was 1000 to 5000 nM.

The assay is the same for the next values; noted with them: A375 cells expressing human R408W PAH; 24 hrs with compound; 13C-Tyrosine by LC-MS; average where tested multiple times; read-out: AC50.
Consider `Cc1nnc(C(=O)N2CCc3[nH]cnc3C2c2nc3ccccc3[nH]2)s1` (stereo not shown), for which the AC50 is above 5000 nM. The same measure, in the same setting: next, `Cn1nc(-c2ccc(Cl)cc2)cc1C(=O)N1CCc2[nH]cnc2C1c1nc2c(F)cccc2s1` (stereo not shown): 1000 to 5000 nM.

Regarding `Cn1ncc(C(=O)N2CCc3[nH]cnc3C2c2nc3c(C(F)(F)F)cccc3s2)c1C(F)F` (stereo not shown), the AC50 is 1000 to 5000 nM. Still for that read-out and setting: next, `O=C(Cc1ccccn1)N1CCc2[nH]cnc2C1c1nc2ccccc2s1` (stereo not shown): 1000 to 5000 nM. On to `Cn1ncc(C(=O)N2CCc3[nH]cnc3C2c2nc3c(F)cccc3s2)c1Cl` (stereo not shown), for which the half-maximal activity concentration (AC50) is 1000 to 5000 nM. For `O=C(CCCc1ccc(F)cc1)N1CCc2[nH]cnc2[C@H]1c1nc2ccccc2[nH]1` [(S)-1-(4-(1H-benzo[d]imidazol-2-yl)-1,4,6,7-tetrahydro-5H-imidazo[4,5-c]pyridin-5-yl)-4-(4-fluorophenyl)butan-1-one], the AC50 is 1000 to 5000 nM. On the same count and under the same terms, with `O=C(Cc1nccs1)N1CCc2[nH]cnc2C1c1nc2ccc(Br)cc2[nH]1` (stereo not shown) the figure was 1000 to 5000 nM; with `O=C(CCc1nccs1)N1CCc2nc[nH]c2C1c1nc2cc(Br)ccc2s1` (stereo not shown), 1000 to 5000 nM; with `CN(C)Cc1ccc2c(C(=O)N3CC4(CC4)c4[nH]cnc4C3c3nc4ccccc4s3)cnn2c1` (stereo not shown), 1000 to 5000 nM. On the same count and under the same terms, next, `O=C(Nc1ccc(F)cc1)N1CCc2[nH]cnc2C1c1nc2ccccc2s1` (stereo not shown): 1000 to 5000 nM.
